Data set [1] can be described thus: Pharmacokinetics in male Sprague Dawley rats after subcutaneous administration. The following applies: plasma, rat, SC, 0.05 mg/kg. The format is in vivo.
Data set [2] deals with T1, rat CRF2 a (Rattus norvegicus, UniProt P47866).
T1 construct: host or cells: A7R5 rat aortic smooth muscle cells
The experiment in a line: Activity at rat CRF2 a, cAMP assay in A7R5 rat aortic smooth muscle cells. In kind it is cell-based. The following applies: 0% HSA, 100% = Sauvagine at 100 nM. As for the experimental part: The A7R5 rat aortic smooth muscle cell line used in this study was purchased from ATCC.
Cells were grown in a 10 cm dish at 37° C./5% CO2 in medium (DMEM/10% FBS) to near confluence. At that stage, cells were harvested, resuspended to 10 million/mL in culture medium and with 5% DMSO. 1 mL vial aliquots were slowly frozen to −80° C. in isopropanol and then transferred in liquid nitrogen for storage.
These vials were used to run the experiment following the procedure reported in the previous paragraph, except for the compound used in the control well to define the 100% activation (Sauvagine at 100 nM) and the cell density (final cell density: 5000 cells/well).

Data set [3] can be described thus: Chemical stability in buffer (pH 7.4 / pH 4.5), % purity loss. In kind it is physicochemical. The following applies: 100 mM phosphate buffer pH 7.4; 40° C. vs 5° C.; 14 or 28 days. The method, boiled down: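 LC-UV gave % loss after 14 or 28 days of storage at 5 °C or 40 °C. Samples were diluted supernatants from compound incubated 1 h at room temperature at 10 mg/mL target, in 100 mM acetate pH 4.5 or 100 mM phosphate pH 7.4.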

The nature of data set [4]: In vitro subcutaneous tissue supernatant (SCts) stability and metabolite identification, rat. In kind it is in vitro ADME. Also on record: remaining at 2 h: dose or concentration left out as unconfirmed. The following applies: male, Sprague Dawley; rat subcutaneous tissue supernatant (SCts), 37° C, 2 h.
Data set [5] has as its system Sprague Dawley rats. The experiment in a line: Effect on systolic blood pressure, telemetry in Sprague Dawley rats. The format is in vivo, rat. The following applies: 0.1 mg/kg SC. Put shortly: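 Values are % change from a 1 h pre-dose baseline in systolic pressure, tracked by telemetry for up to 48 hours after a single 0.1 mg/kg subcutaneous dose. Rats (Sprague Dawley, n=2 per peptide) carried aortic catheters and recovered at least 10 days post-surgery; duration of action marks the last time point still showing an effect.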

By AUC(0-t) is commonly meant exposure summed from dosing to a finite time, without extrapolation to infinity. By Cmax is commonly meant the peak of the concentration-time curve. One may read the Tmax as the time from dosing to the highest level. The term half-life denotes how long it takes for the measured level to halve. By EC50 is commonly meant the concentration that produces a half-maximal response. The term share remaining denotes the share of the starting amount still present when the sample was taken.

*1 amine or outer side, *2 acyl side, *3 side chain or, on linkers, in order; H or OH if unused. Where a SMILES comes first, the peptide text is derived from it. Side-chain parts run from the residue outwards. [ ]: non-standard residue; d: D form. The star is where a group is joined. C18 diacid = O=C(O)CCCCCCCCCCCCCCCCC(=O)*; γGlu = O=C(O)[C@H](CCC(=O)[*:2])N[*:1]; NMeI = CC[C@H](C)[C@H](NC)C(=O)O; Aib = CC(C)(N)C(=O)O

T1 sequence (P47866 27-431 isoform P47866-2 limits assumed): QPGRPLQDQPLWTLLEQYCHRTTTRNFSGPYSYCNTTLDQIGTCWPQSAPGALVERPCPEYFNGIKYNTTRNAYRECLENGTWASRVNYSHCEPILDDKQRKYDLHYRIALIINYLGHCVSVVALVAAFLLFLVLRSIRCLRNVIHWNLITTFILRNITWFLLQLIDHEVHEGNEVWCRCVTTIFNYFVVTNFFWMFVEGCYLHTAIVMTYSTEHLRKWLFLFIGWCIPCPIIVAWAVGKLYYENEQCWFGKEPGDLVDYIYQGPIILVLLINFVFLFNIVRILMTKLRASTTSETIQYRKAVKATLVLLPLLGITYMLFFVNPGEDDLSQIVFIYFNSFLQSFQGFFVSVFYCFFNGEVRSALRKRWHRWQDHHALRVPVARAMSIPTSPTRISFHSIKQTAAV

Regarding `CC[C@H](C)[C@H](NC)C(=O)N[C@H](C(=O)N[C@@H](CC(C)C)C(=O)N[C@@H](CO)C(=O)N[C@@H](CC(C)C)C(=O)N[C@@H](CC(=O)O)C(=O)N[C@@H](C(=O)N1CCC[C@H]1C(=O)N[C@H](C(=O)N[C@@H](CCCCN)C(=O)N[C@@H](CC(C)C)C(=O)N[C@@H](CCCCNC(=O)CC[C@H](NC(=O)CCCCCCCCCCCCCCCCC(=O)O)C(=O)O)C(=O)N[C@@H](CCCCN)C(=O)N[C@H](C(=O)N[C@@H](CC(C)C)C(=O)N[C@@H](CC(C)C)C(=O)N[C@@H](CCC(=O)O)C(=O)N[C@@H](CCC(N)=O)C(=O)N[C@@H](CCC(=O)O)C(=O)N[C@@H](CCCCN)C(=O)N[C@@H](CCC(N)=O)C(=O)N[C@@H](CCCCN)C(=O)N[C@@H](C)C(=O)N[C@@H](CCC(N)=O)C(=O)N[C@@H](CCCNC(=N)N)C(=O)N[C@@H](CCC(=O)O)C(=O)N[C@@H](CCC(N)=O)C(=O)N[C@@H](C)C(=O)N[C@@H](CCC(=O)O)C(=O)N[C@H](C(=O)N[C@@H](CC(N)=O)C(=O)NC(C)(C)C(=O)N[C@@H](CCC(N)=O)C(=O)N[C@H](C(=O)N[C@@H](CC(C)C)C(=O)N[C@@H](C)C(=O)N[C@@H](CCC(N)=O)C(=O)N[C@H](C(N)=O)C(C)C)[C@@H](C)CC)[C@@H](C)O)[C@@H](C)CC)[C@@H](C)CC)C(C)C)C(C)C` [compound 144] (H-[NMeI]VLSLD[dV]PIKLK([γGlu-C18 diacid])KILLEQEKQKAQREQAETN[Aib]QILAQV-NH2), in data set [1], the AUC(0-t) came out at 1.71 µg·h/mL, the peak level (Cmax) was 0.105 µg/mL, the time to peak (Tmax) amounted to 6 h and the half-life is 12.6 h. The same compound registered an EC50 in data set [2] of 0.06 nM. Moreover, the “Buffer stability pH 7.4 % purity loss” value in data set [3] is given as 0.0/Not Tested %. Also, in data set [4], the amount remaining at 2 h was determined as 74%. The “Systolic blood pressure (Mean) % change from baseline, 8 h” value in data set [5] (8 h, n=2) is listed as −22%. Moreover, the “Systolic blood pressure (Mean) % change from baseline, 12 h” value in data set [5] (12 h, n=2) is −17%. Besides, the “Systolic blood pressure (Mean) % change from baseline, 24 h” value in data set [5] (24 h, n=2) was found to be 1%. Further, in data set [5] (last time point with an effect on BP still observed), the Duration of action is 23 h.
